The text below walks through data of patent US7611852B2, “Functional cardiomyocytes from human embryonic stem cells” (Wisconsin Alumni Research Foundation, priority 2002, dated 2009).

Molecules are shown by their SMILES.

Test [1] relates to embryonic atrial-like cardiomyocytes. As to the kind of experiment: Intracellular action potential recording with sharp microelectrodes, embryonic atrial-like cardiomyocytes in EBs. It counts as cell-based, human. The source says:
The applicants here have determined that the HERG channel response of cardiomyocytes in culture created from human embryonic stem cells can be tested and that they do have the same responsive characteristics as mature heart cells in adult humans. Shown in FIG. 5 is an experiment conducted on an atrial type cell, which is a cardiomyocyte in an EB in culture. Note that the electrical profile of the potential generated by that cell, labeled basal in FIG. 5, is characteristic of an embryonic atrial type action potential. To the culture in which that basal signal was being observed, 500 nanomolar E4031 was added. E4031 is a known highly specific HERG channel blocker which blocks the rapid delayed rectifying potassium current (IKr) in adult human heart cells. The addition of that chemical to the medium in which the EB was cultured led to the modification of the action potential generated by that atrial type cell, as illustrated by the curve marked “500 nM E4031” in FIG. 5. The action potential was prolonged due to delayed return to a resting state. This is precisely the effect that this molecule, E4031, is known to have on adult heart cells and precisely the effect that one would predict from the blockage of the HERG channel.
(§1) A single beating, microdissected EB outgrowth was cultured on a glass coverslip for 1-10 days. The coverslip was then attached to the bottom of an experimental chamber mounted on an inverted microscope (Nikon Diaphot 200). The EBs were perfused with Tyrodes solution consisting of (mmol/L): 140 NaCl, 1 MgCl2, 10 HEPES, 10 Glucose, 1.8 CaCl2, pH 7.4 with NaOH at 37° C. Contractions were measured using video edge detection. For intracellular electrophysiology experiments, sharp glass microelectrodes were fabricated with resistances of 30-100 MΩ when filled with 3 mol/L KCl. Spontaneously beating EBs were impaled with the microelectrodes and pipette capacitance was nulled. […] In some experiments, the preparation underwent electrical field stimulation at rates from 1 to 3 Hz. Data were digitized at 20 kHz and filtered at 2 kHz. APs were analyzed using pClamp8.02 (Axon Instruments, Foster City, Calif.) and Origin 6.0 software (Microcal Inc, Northampton, Mass.) to determine AP duration at 50% and 90% of repolarization (APD50 and APD90), AP amplitude (APA), maximum diastolic potential (MDP), and the maximum rate of rise of the AP upstroke (dV/dtmax).
Repolarization of the cardiac action potential is due to multiple ionic currents with an important role played by voltage gated K+ channels; however, there is significant species variability of the exact type of K+ channels present. In human heart, current through HERG potassium channels (KCNH2), IKr, plays a major role in repolarization of the action potential. […]

The test system of test [2] is human embryonic stem cell-derived cardiomyocytes. As to the kind of experiment: Intracellular action potential recording with sharp microelectrodes, cell type not specified. Format: cell-based. The note with it: 500 nM E-4031. As to the method: as §1
Repolarization of the cardiac action potential is due to multiple ionic currents with an important role played by voltage gated K+ channels; however, there is significant species variability of the exact type of K+ channels present. […]

In test [3] the test system is embryonic ventricular-like cardiomyocytes. Format: cell-based. As to conditions: 500 nM E-4031.
Test [4] concerns human embryonic stem cell-derived cardiomyocytes (beating EB outgrowths). Briefly: Contraction measurements of beating EB outgrowths by video edge detection during electrical field stimulation. It counts as cell-based. As to conditions: 1 micromolar, EB electrically stimulated at 1 hertz, basal level defined as 100, FIG. 1. An excerpt: One problem in the testing of cardiomyocytes in EBs is that the rate of spontaneous beating is variable can be dependent on a variety of factors. […] This can be readily done by applying an electrical field stimulation to the EB. This is done most simply by applying electrodes to opposite sides of the culture container in which the EB is contained. […] It is necessary as a part of this process to maintain the EB culture at a constant temperature, since temperature changes can also effect the amplitude of EB beats. It is possible to optically scan the EBs during such beating, using imaging processing observing the EB with video microscopy, to determine the amplitude of the beats which occur in such an EB. […] Additionally other properties of the beat can be monitored such as the rate of contraction and relaxation of the embryoid body providing additional mechanistic information. […]
Contractions were measured using video edge detection. […] Individual beating EBs were monitored with Video Edge Detector VED 105 (Crescent Electronics) through CCD BW Camera NL-2332 (National Electronic) and Sony BW Video Monitor PVM-97 (Sony Corp). The twitch responses at sharp edge of beating EB outgrowth were recorded at 1 kHz through DigiData 1200 A/D converter with pClamp 8.2 acquisition software (both from Axon Instrument, Foster City, Calif.). […]

For the molecule `Cc1cccc(CCN2CCC(C(=O)c3ccc(NS(C)(=O)=O)cc3)CC2)n1` [E-4031], in test [1] (500 nM E-4031), the APD50 result was “not APD50 was significantly prolonged”, the APD90 result is reported as “significantly prolonged” and the action potential duration result is on record as “action potential prolongation”. The “action potential duration” value in test [1] (500 nanomolar E4031 added to EB culture, atrial type cell, FIG. 5) was “prolonged”. In test [2], the “APA (action potential amplitude)” value is listed as “not statistically significant effects” and the “MDP (maximum diastolic potential)” value is given as “not statistically significant effects”. Besides, in test [3], the APD50 entry is listed as “significant prolongation” and the action potential duration entry is “action potential prolongation”. Further, in test [3] (larger effect on APD90 than APD50), the APD90 entry is given as “significant prolongation”.
`CC(C)NCC(O)c1ccc(O)c(O)c1` (stereo not shown) [isoproterenol]: the “amplitude of the beat or contraction of the EB” value in test [4] is “increases dramatically”.
